Laboratory results from US7772255B2, “Method of treating tumors with azaxanthones” (Supratek Pharma, Inc., priority 2005, dated 2010).
Counter-ions that a name gives are not always drawn. Like-named read-outs stand apart in the source and are kept apart here.

Tests used:
[1] = Bioavailability and pharmacokinetics in normal rats; format: in vivo, rat; details: for clearance / Vd / AUC / Cmax / MRT / half-life / bioavailability: female, CD; for clearance / Vd / AUC / Cmax / MRT / half-life / CL / Vss: rat plasma; for Vd: read-out: Vss; for AUC / Cmax / MRT / half-life / bioavailability: rat, plasma; for bioavailability: read-out: Bioavailability for oral administration; for CL / Vss: oral
Experimental: Female CD rats (from 200 to 250 g body weight) were obtained from Charles River Canada Inc. (St. Constant, Quebec, Canada). The animals were kept 4 per cage with an air filter cover under light (12 h light/dark cycle, light on at 06 h 00) and temperature (22°±1° C.)-controlled environment. All manipulations with the animals were performed under a sterilized laminar hood. The animals had ad libitum access to Purina rat chow (Pro Lab PMH 4018, Trademark of Agway, Syracuse, N.Y.) and water. The animal studies were conducted according to the “Guidelines for Care and Use of Experimental Animals”.
For Amlexanox salt the dosing solution was prepared by dissolving 20 mg of Amlexanox in equi-molar NaOH solution and then, equilibrated with 1M Tris-HCl pH 7.4. For Amlexanox acid the dosing solution was prepared by simple suspending 20 mg of Amlexanox in 1% methyl cellulose in water.
Amlexanox dosing solution (20 mg/mL) was administered i.v. and orally in normal rats (four animals in each group) at doses of 10, 25, 50, 100 and 200 mg/kg. After various time intervals (30 min and 1, 3, 6, 10 and 24 h) post-injection, blood was collected from eye vein of animals. Then, blood was immediately centrifuged, and plasma was separated. The plasma samples were immediately frozen in dry ice and stored at −80° C. until further use.
(§1) The defrosted plasma samples were centrifuged at 2000 g for 5 min, and aliquots (10 μL) of each sample were transferred into 1.5-ml plastic tubes. The samples were diluted with phosphate buttered saline (PBS) in various amounts of times and aliquots of 100 μL were transferred into the other 1.5-ml plastic tubes. The samples were extracted with 1 mL of 100% acetonitrile for 10 min on 180° rotator. Then, the tubes were centrifuged at 10,000 g for 15 min.
(§2) The supernatant was separated to glass tubes and evaporated in a stream of nitrogen at […]. until dryness. The dried samples were kept at −20° C. until HPLC analysis. The samples were reconstituted in 100 μL of mobile phase analyze before analyze by HPLC.
(§3) The samples were analysed by HPLC using 250×4.6 mm, Phenomenex C18 Luna, 5 micron column, 1 mL/min flow rate of mobile phase 73% of 25 mM sodium phosphate pH 7.5 and 27% acetonitrile; fluorescent deyection λexcitation=348 nm, λemission=404 nm.
The concentrations of Amlexanox in samples were determined by comparison with calibration curve obtained from spiked rat plasma samples using the same analytical method. The areas under the curves (AUC) of Amlexanox were calculated by trapezoidal method.

[2] = Pharmacokinetics in normal dogs; format: in vivo, dog (Canis familiaris); details: 10 mg/kg
Experimental: Experiments were performed in 6 male Beagle dogs (Canis familiaris) (from 8 to 14 kg body weight, 2 to 3 years of age). The animals had ad libitum access to tap water. Commercial dog chow was provided to the animals once daily during a 2-hour feeding period.
Dosing solution of amlexanox salt was prepared by simple dissolving of amlexanox salt in water. Dosing solution of amlexanox acid was prepared suspending of amlexanox acid in 0.5% methyl cellulose.
Amlexanox acid and Na salt forms were orally administered by gavage in dogs (three animals in each group) at doses of 10 mg/kg. Amlexanox tablets L and CP, prepared according to Example 13, were administered to dogs orally at doses of 10 mg/kg. After various time intervals (pre-dose, 15, 30 min and 1, 2, 3, 6, 8, 12, 24 and 48 h) post-injection, blood was collected from the jugular vein of animals. Then, blood was immediately centrifuged, and plasma was separated. The plasma samples were immediately frozen in dry ice and stored at −80° C. until further use.
as §1, with “PBS” for “phosphate buttered saline (PBS)”
as §2, §3
The concentrations of amlexanox in samples were determined by comparison with calibration curve obtained from spiked dog plasma samples using the same analytical method. The areas under the curves (AUC) of amlexanox were calculated by trapezoidal method.

[3] = dog plasma, oral, listed as Amlexanox Na Salt, sodium salt
[4] = po, 10 mg/kg, acid suspended in 1% methyl cellulose
[5] = po, 25 mg/kg, acid suspended in 1% methyl cellulose
[6] = po, 50 mg/kg, acid suspended in 1% methyl cellulose
[7] = po, 100 mg/kg, acid suspended in 1% methyl cellulose
[8] = po, 200 mg/kg, acid suspended in 1% methyl cellulose
[9] = acid suspended in 1% methyl cellulose, 10 mg/kg
[10] = acid suspended in 1% methyl cellulose, 25 mg/kg
[11] = acid suspended in 1% methyl cellulose, 50 mg/kg
[12] = acid suspended in 1% methyl cellulose, 100 mg/kg
[13] = acid suspended in 1% methyl cellulose, 200 mg/kg
[14] = dog plasma, oral, listed as Amlexanox Acid

With `CC(C)c1ccc2oc3nc(N)c(C(=O)O)cc3c(=O)c2c1` [Amlexanox (salt), 2-amino-7-isopropyl-1-azaxanthone-3-carboxylic acid sodium salt] the clearance ([1]; iv, I.V., 10 mg/kg) was 50 mL/min/kg, the Vd ([1]; iv, I.V., 10 mg/kg) was 2.26 L/kg and the clearance ([1]; iv, I.V., 25 mg/kg) was 8.83 mL/min/kg. It also gave a Vd ([1]; iv, I.V., 25 mg/kg) of 0.99 L/kg, a clearance ([1]; iv, I.V., 50 mg/kg) of 1.67 mL/min/kg and a Vd ([1]; iv, I.V., 50 mg/kg) of 0.1 L/kg. It also gave a clearance ([1]; iv, I.V., 100 mg/kg) of 2.17 mL/min/kg, a Vd ([1]; iv, I.V., 100 mg/kg) of 0.14 L/kg and a clearance ([1]; iv, I.V., 200 mg/kg) of 4.5 mL/min/kg. The Vd ([1]; iv, I.V., 200 mg/kg) was 0.51 L/kg, the AUC ([1]; iv, 10 mg/kg, I.V.) was 3300 ng·h/mL and the Cmax ([1]; iv, 10 mg/kg, I.V.) was 4500 ng/mL. The MRT ([1]; iv, 10 mg/kg, I.V.) was 0.75 h, the half-life ([1]; iv, 10 mg/kg, I.V.) was 0.52 h and the AUC ([1]; iv, 25 mg/kg, I.V.) was 47000 ng·h/mL. The Cmax ([1]; iv, 25 mg/kg, I.V.) was 33400 ng/mL, the MRT ([1]; iv, 25 mg/kg, I.V.) was 1.87 h and the half-life ([1]; iv, 25 mg/kg, I.V.) was 1.29 h. It also gave an AUC ([1]; iv, 50 mg/kg, I.V.) of 217000 ng·h/mL, a Cmax ([1]; iv, 50 mg/kg, I.V.) of 165000 ng/mL and an MRT ([1]; iv, 50 mg/kg, I.V.) of 1.05 h. For the same molecule, the half-life ([1]; iv, 50 mg/kg, I.V.) was 0.69 h, the AUC ([1]; iv, 100 mg/kg, I.V.) was 398000 ng·h/mL and the Cmax ([1]; iv, 100 mg/kg, I.V.) was 216000 ng/mL. For the same molecule, the MRT ([1]; iv, 100 mg/kg, I.V.) was 1.14 h, the half-life ([1]; iv, 100 mg/kg, I.V.) was 0.75 h and the AUC ([1]; iv, 200 mg/kg, I.V.) was 739000 ng·h/mL. The Cmax ([1]; iv, 200 mg/kg, I.V.) was 466000 ng/mL, the MRT ([1]; iv, 200 mg/kg, I.V.) was 1.89 h and the half-life ([1]; iv, 200 mg/kg, I.V.) was 1.31 h. The AUC ([1]; po, 10 mg/kg, salt solution) was 1040 ng·h/mL, the Cmax ([1]; po, 10 mg/kg, salt solution) was 190 ng/mL and the MRT ([1]; po, 10 mg/kg, salt solution) was 8.29 h. The half-life ([1]; po, 10 mg/kg, salt solution) was 5.76 h, the bioavailability ([1]; po, 10 mg/kg, salt, 10 mg/kg) was 31.2% and the AUC ([1]; po, 25 mg/kg, salt solution) was 2200 ng·h/mL. For the same molecule, the Cmax ([1]; po, 25 mg/kg, salt solution) was 550 ng/mL, the MRT ([1]; po, 25 mg/kg, salt solution) was 7.71 h and the half-life ([1]; po, 25 mg/kg, salt solution) was 5.33 h. It also gave a bioavailability ([1]; po, 25 mg/kg, salt, 25 mg/kg) of 4.7%, an AUC ([1]; po, 50 mg/kg, salt solution) of 4470 ng·h/mL and a Cmax ([1]; po, 50 mg/kg, salt solution) of 1590 ng/mL. For the same molecule, the MRT ([1]; po, 50 mg/kg, salt solution) was 7.28 h, the half-life ([1]; po, 50 mg/kg, salt solution) was 5.04 h and the bioavailability ([1]; po, 50 mg/kg, salt, 50 mg/kg) was 2.1%. It also gave an AUC ([1]; po, 100 mg/kg, salt solution) of 41200 ng·h/mL, a Cmax ([1]; po, 100 mg/kg, salt solution) of 19800 ng/mL and an MRT ([1]; po, 100 mg/kg, salt solution) of 2.05 h. It also gave a half-life ([1]; po, 100 mg/kg, salt solution) of 1.42 h, a bioavailability ([1]; po, 100 mg/kg, salt, 100 mg/kg) of 10.3% and an AUC ([1]; po, 200 mg/kg, salt solution) of 200000 ng·h/mL. It also gave a Cmax ([1]; po, 200 mg/kg, salt solution) of 95200 ng/mL, an MRT ([1]; po, 200 mg/kg, salt solution) of 1.77 h and a half-life ([1]; po, 200 mg/kg, salt solution) of 1.23 h. For the same molecule, the bioavailability ([1]; po, 200 mg/kg, salt, 200 mg/kg) was 27.1%, the CL ([1]; salt solution, 10 mg/kg) was 160 mL/min/kg and the Vss ([1]; salt solution, 10 mg/kg) was 79.8 L/kg. The CL ([1]; salt solution, 25 mg/kg) was 190 mL/min/kg, the Vss ([1]; salt solution, 25 mg/kg) was 87.7 L/kg and the CL ([1]; salt solution, 50 mg/kg) was 187 mL/min/kg. The Vss ([1]; salt solution, 50 mg/kg) was 81.4 L/kg, the CL ([1]; salt solution, 100 mg/kg) was 40.5 mL/min/kg and the Vss ([1]; salt solution, 100 mg/kg) was 4.99 L/kg. The CL ([1]; salt solution, 200 mg/kg) was 8.3 mL/min/kg, the Vss ([1]; salt solution, 200 mg/kg) was 0.89 L/kg and the AUC [2, 3] was 29000 ng·h/mL. It also gave a CL [2, 3] of 5 mL/min/kg, a Cmax [2, 3] of 10700 ng/mL and an MRT [2, 3] of 2.5 h. It also gave a Vss [2, 3] of 0.9 L/kg and a t1/2 [2, 3] of 1.8 h.

`CC(C)c1ccc2oc3nc(N)c(C(=O)O)cc3c(=O)c2c1` [Amlexanox, 2-amino-7-isopropyl-1-azaxanthone-3-carboxylic acid] showed an AUC [1, 4] of 1050 ng·h/mL, a Cmax [1, 4] of 370 ng/mL and an MRT [1, 4] of 6.28 h. It also gave a half-life [1, 4] of 4.36 h, a bioavailability ([1]; po, 10 mg/kg, acid, 10 mg/kg) of 31.5% and an AUC [1, 5] of 1380 ng·h/mL. For the same molecule, the Cmax [1, 5] was 260 ng/mL, the MRT [1, 5] was 11.3 h and the half-life [1, 5] was 7.81 h. The bioavailability ([1]; po, 25 mg/kg, acid, 25 mg/kg) was 2.9%, the AUC [1, 6] was 2380 ng·h/mL and the Cmax [1, 6] was 580 ng/mL. The MRT [1, 6] was 8.43 h, the half-life [1, 6] was 5.84 h and the bioavailability ([1]; po, 50 mg/kg, acid, 50 mg/kg) was 1.1%. It also gave an AUC [1, 7] of 8830 ng·h/mL, a Cmax [1, 7] of 1170 ng/mL and an MRT [1, 7] of 8.7 h. For the same molecule, the half-life [1, 7] was 6.04 h, the bioavailability ([1]; po, 100 mg/kg, acid, 100 mg/kg) was 2.2% and the AUC [1, 8] was 18600 ng·h/mL. The Cmax [1, 8] was 7000 ng/mL, the MRT [1, 8] was 5.32 h and the half-life [1, 8] was 3.68 h. It also gave a bioavailability ([1]; po, 200 mg/kg, acid, 200 mg/kg) of 2.5%, a CL [1, 9] of 158 mL/min/kg and a Vss [1, 9] of 59.8 L/kg. The CL [1, 10] was 301.7 mL/min/kg, the Vss [1, 10] was 204 L/kg and the CL [1, 11] was 350.2 mL/min/kg. It also gave a Vss [1, 11] of 177.2 L/kg, a CL [1, 12] of 188.3 mL/min/kg and a Vss [1, 12] of 98.5 L/kg. The CL [1, 13] was 89.5 mL/min/kg, the Vss [1, 13] was 28.5 L/kg and the AUC [2, 14] was 7600 ng·h/mL. It also gave a CL [2, 14] of 21.7 mL/min/kg, a Cmax [2, 14] of 3400 ng/mL and a Vss [2, 14] of 4.3 L/kg. The half-life ([2]; male, Beagle, dog, plasma, po) was 2.3 h and the MRT ([2]; male, Beagle, dog, plasma, po, read-out: MRT) was 3.3 h.
